Literature values in patent publication US20230111190A1, “ORAL COMPOSITIONS WITH IMPROVED BIOAVAILABILITY AND METHODS OF MAKING THE SAME” (Nulixir Inc., priority 2021, published 2023).

What was measured:
[1] = n-octanol and water; categorization at pH = 7 unless stated otherwise
[2] = dependence on water content
[3] = one study estimated
[4] = in vivo

Molecule	logP [1]	further results
COc1cc(/C=C\c2ccc(OC)c(O)c2)oc(=O)c1 [11-hydroxyyangonin]	~2.2	–
CC1=C(CO)C(=O)O[C@@H]([C@@H](C)[C@H]2CC[C@H]3[C@@H]4C[C@H](Cl)[C@]5(O)[C@@H](O)C=CC(=O)[C@]5(C)[C@H]4CC[C@]23C)C1 [6a-chloro-5b-hydroxywithaferin A]	~3.2	–
hericerin	~6.4	–
CC(=O)OC1C=CC(=O)N(C(=O)CCc2ccccc2)C1 (centres unmarked) [pipermethystine]	~1.8	–
schisandroside C	~1.6	–
O=C(/C=C/c1ccccc1)N1CCCC1 [(E)-1-cinnamoylpyrrolidine]	~2.2	–
O=CC=Cc1ccccc1 [Cinnamaldehyde]	–	antifungal inhibitory activity (many strains of fungi): strong inhibitory activity
(R)-kawain	~2.7	–
NCCCC(=O)O [GABA, gamma-aminobutyric acid]	~-3	–
tortuosomine	~3	–
COC1=CC(=O)O[C@@H](CCc2ccc3c(c2)OCO3)C1 [7,8-dihydromethysticin]	~2.2	–
COc1cc2c(c(OC)c1OC)-c1c(cc(OC)c(OC)c1OC)C[C@](C)(O)[C@@H](C)C2 [(+)-schisandrin]	~5	–
N[C@@H](Cc1c[nH]c2ccc(O)cc12)C(=O)O [5-HTP, 5-hydroxytryptophan]	~-2	–
COc1cc2c(c(OC)c1OC)-c1c(cc3c(c1OC)OCO3)CC(C)C(C)C2 (single isomer, unassigned; (-)) [(-)-schisandrin B]	~4	–
COc1ccc(/C=C/c2cc(OC)cc(=O)o2)cc1 [yangonin]	~2.8	–
CCNC(=O)CC[C@H](N)C(=O)O [L-theanine]	~-3	–
CC(C)=C[C@H]1C[C@](C)(O)[C@@H]2[C@H]3CC[C@@H]4[C@@]5(C)CC[C@H](O[C@@H]6OC[C@H](O)[C@H](O[C@@H]7O[C@H](CO)[C@@H](O)[C@H](O)[C@H]7O)[C@H]6O[C@@H]6O[C@@H](CO)[C@H](O)[C@H]6O)C(C)(C)[C@@H]5CC[C@@]4(C)[C@@]34CO[C@@]2(C4)O1 [bacopaside X]	~2.2	–
COc1ccc([C@@]23CCC(=O)C[C@@H]2N(C)CC3)cc1OC [mesembrine]	~1.5	–
CC(C)=C[C@@H]1CO[C@]23C[C@]4(CO2)[C@H](CC[C@@H]2[C@@]5(C)CC[C@H](O[C@@H]6OC[C@H](O)[C@H](O[C@@H]7O[C@H](CO)[C@@H](O)[C@H](O)[C@H]7O)[C@H]6O[C@@H]6O[C@@H](CO)[C@H](O)[C@H]6O)C(C)(C)[C@@H]5CC[C@]24C)[C@H]3[C@@]1(C)O [bacopasaponin C]	~2	–
COc1cc(/C=C/c2ccccc2)oc(=O)c1 [5,6-dehydrokawain]	~2.9	–
CC(C)=C[C@H]1C[C@](C)(O)[C@H]2[C@H]3CC[C@@H]4[C@@]5(C)CC[C@H](O[C@@H]6O[C@H](CO)[C@@H](O)[C@H](O[C@@H]7O[C@H](CO)[C@@H](O)[C@H](O)[C@H]7O)[C@H]6O[C@@H]6O[C@@H](CO)[C@H](O)[C@H]6O)C(C)(C)[C@@H]5CC[C@@]4(C)[C@@]34CO[C@@]2(C4)O1 [bacoside A3]	~2.1	–
Cn1c(=O)c2c(n(C)c1=O)n(C)c(=O)n2C [theacrine]	~-1.06	–

Molecule	logP [1]	further results
Cn1cnc2c1c(=O)[nH]c(=O)n2C [theobromine]	~-0.78	–
COC1=CC(=O)OC(/C=C/c2ccc(OC)cc2)C1 (centres unmarked) [5,6-dihydroyangonin]	~2.5	–
COc1nc2c(c(=O)n1C)n(C)c(=O)n2C [methylliberine]	~-0.083	–
COc1ccc(C23C=CC(O)CC2N(C)CC3)cc1OC (centres unmarked) [mesembrenol]	~2.4	–
CC(C)=CCC[C@](C)(O[C@@H]1O[C@H](CO)[C@@H](O)[C@H](O)[C@H]1O)[C@H]1CC[C@]2(C)[C@@H]1[C@H](O)C[C@@H]1[C@@]3(C)CC[C@H](O)C(C)(C)[C@@H]3[C@@H](O[C@@H]3O[C@H](CO)[C@@H](O)[C@H](O)[C@H]3O)C[C@]12C [ginsenoside rg1]	~0.8	–
COc1ccc(CCc2cc(OC)cc(=O)o2)cc1 [7,8-dihydroyangonin]	~2.9	–
herinacine A	~2.5	–
N[C@@H](Cc1ccccc1)C(=O)O [L-phenylalanine]	~-1.38	–
COc1ccc2cc3[n+](cc2c1OC)CCc1cc2c(cc1-3)OCO2 [berberine]	–	solubility in ethanol [2]: decreases rapidly with water content; affected by first-pass digestion [3]: 43%; bioavailability lost to hepatic metabolism [3]: minimal amount; not absorbed and eliminated via feces [3]: 56%
O=C(O)c1cc(C(=O)O)c2c(n1)C(=O)C(=O)c1cc(C(=O)O)[nH]c1-2 [PQQ, pyrroloquinoline quinone]	~0.4	–
COc1cc(O)c2c(=O)c(OC)c(-c3ccc(O)cc3)oc2c1 [kumatakenin]	~2.5	–
COc1cc2c(c(OC)c1OC)-c1c(cc(OC)c(OC)c1OC)C[C@H](C)[C@H](C)C2 [(-)-schisandrin A]	~3.6	–
COc1cc2c(c(OC)c1OC)-c1c(cc(OC)c(OC)c1OC)C[C@](C)(O)[C@@H](C)C2 [schisandrol A]	~3.4	–
CC(C)=CCC[C@](C)(O[C@@H]1O[C@H](CO[C@@H]2O[C@H](CO)[C@@H](O)[C@H](O)[C@H]2O)[C@@H](O)[C@H](O)[C@H]1O)[C@H]1CC[C@]2(C)[C@@H]1[C@H](O)C[C@@H]1[C@@]3(C)CC[C@H](O[C@@H]4O[C@H](CO)[C@@H](O)[C@H](O)[C@H]4O[C@@H]4O[C@H](CO)[C@@H](O)[C@H](O)[C@H]4O)C(C)(C)[C@@H]3CC[C@]12C [ginsenoside rb1]	~-1	–
(-)-schisandrin C	~3.5	–
N#C[C@@]1(O[C@@H]2O[C@H](CO)[C@@H](O)[C@H](O)[C@H]2O)C=C[C@@H](O)C1 [tetraphyllin B]	~-2.5	–
CC(/C=C/C=C(\C)C(=O)O[C@@H]1O[C@H](CO[C@@H]2O[C@H](CO)[C@@H](O)[C@H](O)[C@H]2O)[C@@H](O)[C@H](O)[C@H]1O)=C\C=C\C=C(C)\C=C\C=C(/C)C(=O)O[C@@H]1O[C@H](CO[C@@H]2O[C@H](CO)[C@@H](O)[C@H](O)[C@H]2O)[C@@H](O)[C@H](O)[C@H]1O [alpha-crocin]	~-1.5	–
bacopaside B	~2.8	–
COc1ccc([C@@]23C=CC(=O)C[C@@H]2N(C)CC3)cc1OC [mesembrenone]	~1.3	–
CCCCCCCC/C=C\CCCCCCCC(=O)O [oleic acid]	–	absorbed via the lymphatic system [4]: 85%; absorbed via the portal vein [4]: 15%
COc1cc([C@H]2Oc3cc(O)c4c(=O)c(O)c(-c5ccc(O)cc5)oc4c3O[C@@H]2CO)ccc1O [rhodiolin]	~2	–
